Assay results taken from US20250163104A1, “MACROCYCLIC IMMUNOMODULATORS” (priority 2021, published 2025).
Where a SMILES comes first, the peptide text is derived from it. Bridges are numbered along the chain shown (N, C = ends). [ ]: non-standard residue; d: D form. The star is where a group is joined. Phe(4-COOH) = N[C@@H](Cc1ccc(C(=O)O)cc1)C(=O)O; Bip = N[C@@H](Cc1ccc(-c2ccccc2)cc1)C(=O)O; Ala(cPent) = N[C@@H](CC1CCCC1)C(=O)O; Cha = N[C@@H](CC1CCCCC1)C(=O)O; Gly(cPr) = N[C@H](C(=O)O)C1CC1; Chg = N[C@H](C(=O)O)C1CCCCC1; Phg = N[C@H](C(=O)O)c1ccccc1; Carboxymethyl = O=C(O)C*; Nle = CCCC[C@H](N)C(=O)O; Orn = NCCC[C@H](N)C(=O)O; Dab = NCC[C@H](N)C(=O)O; Abu = CC[C@H](N)C(=O)O; Dap = NC[C@H](N)C(=O)O

Target: T1, human PD-1 / PD-L1-Ig binding on Jurkat cell line over-expressing human PD-1 (Jurkat-PD-1) (Homo sapiens, UniProt Q15116)
T1 construct: expressed in transfected cells; host or cells: Jurkat
Experiment: Jurkat-PD-1 Cell Binding High-Content Screening Assay (CBA)
Format: cell-based
Conditions: Jurkat HPD1_PDL1 IC50, Jurkat-PD-1 cells, PE-labeled PD-L1-Ig 20 nM final
Procedure, shortened: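 Read-out: high-content imaging of PE-tagged PD-L1-Ig bound to Jurkat cells overexpressing human PD-1, after fixation with 4% paraformaldehyde and Hoechst 33342 nuclear staining. Ligand was used at 20 nM final for 1 hour, after a 2 h compound exposure at 37° C in serum-containing DMEM.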

T1 sequence (Q15116 25-288): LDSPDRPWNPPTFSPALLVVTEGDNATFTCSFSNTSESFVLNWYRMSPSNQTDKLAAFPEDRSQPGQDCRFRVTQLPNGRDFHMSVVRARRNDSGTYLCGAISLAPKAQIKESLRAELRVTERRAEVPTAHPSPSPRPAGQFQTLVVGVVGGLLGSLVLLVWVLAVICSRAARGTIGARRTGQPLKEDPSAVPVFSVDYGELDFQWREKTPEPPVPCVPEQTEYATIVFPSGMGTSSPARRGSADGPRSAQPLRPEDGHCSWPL

Row | Structure (SMILES) | IC50 [nM]
1 | CC[C@@H]1NC(=O)[C@H](Cc2c[nH]c3ccccc23)NC(=O)[C@H](CC(=O)O)NC(=O)[C@H](Cc2ccc(OCC(=O)O)cc2)NC(=O)[C@H](CN)NC(=O)CSC[C@@H](C(=O)N[C@@H](C)C(N)=O)NC(=O)[C@H]([C@@H](C)O)NC(=O)[C@H](C(C)C)NC(=O)[C@H](CC2CCCCC2)NC(=O)[C@H](CCN)NC(=O)[C@@H](CC(C)C)NC(=O)[C@H](CCCN)NC(=O)[C@H](C(C)C)NC(=O)[C@H](Cc2ccc(-c3ccccc3)cc2)NC1=O [Compound 1729] ({CH2CO}-[Dap]Y(Carboxymethyl)DW[Abu][Bip]V[Orn][dL][Dab][Cha]VTCA-NH2; thioether N-14) | 16.9
2 | CC(C)C[C@H]1NC(=O)[C@H](CCCN)NC(=O)[C@H](C(C)C)NC(=O)[C@H](Cc2ccc(-c3ccccc3)cc2)NC(=O)[C@H](C2CCCCC2)NC(=O)[C@H](Cc2c[nH]c3ccccc23)NC(=O)[C@H](CC(=O)O)NC(=O)[C@H](Cc2ccc(OCC(=O)O)cc2)NC(=O)[C@H](CN)NC(=O)CSC[C@@H](C(=O)N[C@@H](C)C(N)=O)NC(=O)[C@H]([C@@H](C)O)NC(=O)[C@H](C(C)C)NC(=O)[C@H](CC2CCCCC2)NC(=O)[C@H](CCN)NC1=O [Compound 1730] ({CH2CO}-[Dap]Y(Carboxymethyl)DW[Chg][Bip]V[Orn][dL][Dab][Cha]VTCA-NH2; thioether N-14) | 32.4
3 | CC(C)C[C@H]1NC(=O)[C@H](CCCN)NC(=O)[C@H](C(C)C)NC(=O)[C@H](Cc2ccc(-c3ccccc3)cc2)NC(=O)[C@H](CC2CCCC2)NC(=O)[C@H](Cc2c[nH]c3ccccc23)NC(=O)[C@H](CC(=O)O)NC(=O)[C@H](Cc2ccc(OCC(=O)O)cc2)NC(=O)[C@H](CN)NC(=O)CSC[C@@H](C(=O)N[C@@H](C)C(N)=O)NC(=O)[C@H]([C@@H](C)O)NC(=O)[C@H](C(C)C)NC(=O)[C@H](CC2CCCCC2)NC(=O)[C@H](CCN)NC1=O [Compound 1731] ({CH2CO}-[Dap]Y(Carboxymethyl)DW[Ala(cPent)][Bip]V[Orn][dL][Dab][Cha]VTCA-NH2; thioether N-14) | 13

Same assay, conditions: Jurkat-PD-1 cells, PE-labeled PD-L1-Ig 20 nM final; read-out: Jurkat HPD1_PDL1 IC50

Row | Structure (SMILES) | IC50 [nM]
4 | CC[C@H](C)[C@@H]1NC(=O)[C@H](Cc2c[nH]c3ccccc23)NC(=O)[C@H](CC(=O)O)NC(=O)[C@H](Cc2ccc(OCC(=O)O)cc2)NC(=O)[C@H](CN)NC(=O)CSC[C@@H](C(=O)N[C@@H](C)C(N)=O)NC(=O)[C@H]([C@@H](C)O)NC(=O)[C@H](C(C)C)NC(=O)[C@H](CC2CCCCC2)NC(=O)[C@H](CCN)NC(=O)[C@@H](CC(C)C)NC(=O)[C@H](CCCN)NC(=O)[C@H]([C@@H](C)CC)NC(=O)[C@H](Cc2ccc(-c3ccccc3)cc2)NC1=O [Compound 1725] ({CH2CO}-[Dap]Y(Carboxymethyl)DWI[Bip]I[Orn][dL][Dab][Cha]VTCA-NH2; thioether N-14) | 24.7
5 | CCCC[C@@H]1NC(=O)[C@H](Cc2c[nH]c3ccccc23)NC(=O)[C@H](CC(=O)O)NC(=O)[C@H](Cc2ccc(OCC(=O)O)cc2)NC(=O)[C@H](CN)NC(=O)CSC[C@@H](C(=O)N[C@@H](C)C(N)=O)NC(=O)[C@H]([C@@H](C)O)NC(=O)[C@H](C(C)C)NC(=O)[C@H](CC2CCCCC2)NC(=O)[C@H](CCN)NC(=O)[C@@H](CC(C)C)NC(=O)[C@H](CCCN)NC(=O)[C@H]([C@@H](C)CC)NC(=O)[C@H](Cc2ccc(-c3ccccc3)cc2)NC1=O [Compound 1726] ({CH2CO}-[Dap]Y(Carboxymethyl)DW[Nle][Bip]I[Orn][dL][Dab][Cha]VTCA-NH2; thioether N-14) | 13.1
6 | CC[C@H](C)[C@@H]1NC(=O)[C@H](Cc2ccc(-c3ccccc3)cc2)NC(=O)[C@H](c2ccccc2)NC(=O)[C@H](Cc2c[nH]c3ccccc23)NC(=O)[C@H](CC(=O)O)NC(=O)[C@H](Cc2ccc(OCC(=O)O)cc2)NC(=O)[C@H](CN)NC(=O)CSC[C@@H](C(=O)N[C@@H](C)C(N)=O)NC(=O)[C@H]([C@@H](C)O)NC(=O)[C@H](C(C)C)NC(=O)[C@H](CC2CCCCC2)NC(=O)[C@H](CCN)NC(=O)[C@@H](CC(C)C)NC(=O)[C@H](CCCN)NC1=O [Compound 1728] ({CH2CO}-[Dap]Y(Carboxymethyl)DW[Phg][Bip]I[Orn][dL][Dab][Cha]VTCA-NH2; thioether N-14) | 29.2
7 | CCCC[C@@H]1NC(=O)[C@H](Cc2c[nH]c3ccccc23)NC(=O)[C@H](CC(=O)O)NC(=O)[C@H](Cc2ccc(OCC(=O)O)cc2)NC(=O)[C@H](CN)NC(=O)CSC[C@@H](C(=O)N[C@@H](C)C(N)=O)NC(=O)[C@H]([C@@H](C)O)NC(=O)[C@H](C(C)C)NC(=O)[C@H](CC2CCCCC2)NC(=O)[C@H](CCN)NC(=O)[C@@H](CC(C)C)NC(=O)[C@H](CCCN)NC(=O)[C@H](C(C)C)NC(=O)[C@H](Cc2ccc(-c3ccccc3)cc2)NC1=O [Compound 1734] ({CH2CO}-[Dap]Y(Carboxymethyl)DW[Nle][Bip]V[Orn][dL][Dab][Cha]VTCA-NH2; thioether N-14) | 10.8
8 | CC(C)C[C@H]1NC(=O)[C@H](CCCN)NC(=O)[C@H](C(C)C)NC(=O)[C@H](Cc2ccc(-c3ccccc3)cc2)NC(=O)[C@H](C(C)C)NC(=O)[C@H](Cc2c[nH]c3ccccc23)NC(=O)[C@H](CC(=O)O)NC(=O)[C@H](Cc2ccc(OCC(=O)O)cc2)NC(=O)[C@H](CN)NC(=O)CSC[C@@H](C(=O)N[C@@H](C)C(N)=O)NC(=O)[C@H](CN)NC(=O)[C@H](C(C)C)NC(=O)[C@H](CC2CCCCC2)NC(=O)[C@H](CCN)NC1=O [Compound 1738] ({CH2CO}-[Dap]Y(Carboxymethyl)DWV[Bip]V[Orn][dL][Dab][Cha]V[Dap]CA-NH2; thioether N-14) | 8.3

Next, values leading:

Row | IC50 [nM] | Structure (SMILES)
9 | 9.1 | CCC[C@@H]1NC(=O)[C@H](Cc2c[nH]c3ccccc23)NC(=O)[C@H](CC(=O)O)NC(=O)[C@H](Cc2ccc(OCC(=O)O)cc2)NC(=O)[C@H](CN)NC(=O)CSC[C@@H](C(=O)N[C@@H](C)C(N)=O)NC(=O)[C@H]([C@@H](C)O)NC(=O)[C@H](C(C)C)NC(=O)[C@H](CC2CCCCC2)NC(=O)[C@H](CCN)NC(=O)[C@@H](CC(C)C)NC(=O)[C@H](CCCN)NC(=O)[C@H]([C@@H](C)CC)NC(=O)[C@H](Cc2ccc(-c3ccccc3)cc2)NC1=O [Compound 1727]
10 | 18.3 | CC(C)C[C@H]1NC(=O)[C@H](CCCN)NC(=O)[C@H](C(C)C)NC(=O)[C@H](Cc2ccc(-c3ccccc3)cc2)NC(=O)[C@H](C2CC2)NC(=O)[C@H](Cc2c[nH]c3ccccc23)NC(=O)[C@H](CC(=O)O)NC(=O)[C@H](Cc2ccc(OCC(=O)O)cc2)NC(=O)[C@H](CN)NC(=O)CSC[C@@H](C(=O)N[C@@H](C)C(N)=O)NC(=O)[C@H]([C@@H](C)O)NC(=O)[C@H](C(C)C)NC(=O)[C@H](CC2CCCCC2)NC(=O)[C@H](CCN)NC1=O [Compound 1732] ({CH2CO}-[Dap]Y(Carboxymethyl)DW[Gly(cPr)][Bip]V[Orn][dL][Dab][Cha]VTCA-NH2; thioether N-14)
11 | 16.7 | CC[C@H](C)[C@@H]1NC(=O)[C@H](Cc2c[nH]c3ccccc23)NC(=O)[C@H](CC(=O)O)NC(=O)[C@H](Cc2ccc(OCC(=O)O)cc2)NC(=O)[C@H](CN)NC(=O)CSC[C@@H](C(=O)N[C@@H](C)C(N)=O)NC(=O)[C@H]([C@@H](C)O)NC(=O)[C@H](C(C)C)NC(=O)[C@H](CC2CCCCC2)NC(=O)[C@H](CCN)NC(=O)[C@@H](CC(C)C)NC(=O)[C@H](CCCN)NC(=O)[C@H](C(C)C)NC(=O)[C@H](Cc2ccc(-c3ccccc3)cc2)NC1=O [Compound 1733] ({CH2CO}-[Dap]Y(Carboxymethyl)DWI[Bip]V[Orn][dL][Dab][Cha]VTCA-NH2; thioether N-14)
12 | 13.6 | CCC[C@@H]1NC(=O)[C@H](Cc2c[nH]c3ccccc23)NC(=O)[C@H](CC(=O)O)NC(=O)[C@H](Cc2ccc(OCC(=O)O)cc2)NC(=O)[C@H](CN)NC(=O)CSC[C@@H](C(=O)N[C@@H](C)C(N)=O)NC(=O)[C@H]([C@@H](C)O)NC(=O)[C@H](C(C)C)NC(=O)[C@H](CC2CCCCC2)NC(=O)[C@H](CCN)NC(=O)[C@@H](CC(C)C)NC(=O)[C@H](CCCN)NC(=O)[C@H](C(C)C)NC(=O)[C@H](Cc2ccc(-c3ccccc3)cc2)NC1=O [Compound 1735]
13 | 14 | CC(C)C[C@H]1NC(=O)[C@H](CCCN)NC(=O)[C@H](C(C)C)NC(=O)[C@H](Cc2ccc(-c3ccccc3)cc2)NC(=O)[C@H](c2ccccc2)NC(=O)[C@H](Cc2c[nH]c3ccccc23)NC(=O)[C@H](CC(=O)O)NC(=O)[C@H](Cc2ccc(OCC(=O)O)cc2)NC(=O)[C@H](CN)NC(=O)CSC[C@@H](C(=O)N[C@@H](C)C(N)=O)NC(=O)[C@H]([C@@H](C)O)NC(=O)[C@H](C(C)C)NC(=O)[C@H](CC2CCCCC2)NC(=O)[C@H](CCN)NC1=O [Compound 1736] ({CH2CO}-[Dap]Y(Carboxymethyl)DW[Phg][Bip]V[Orn][dL][Dab][Cha]VTCA-NH2; thioether N-14)
14 | 9.9 | CC(C)C[C@H]1NC(=O)[C@H](CCCN)NC(=O)[C@H](C(C)C)NC(=O)[C@H](Cc2ccc(-c3ccccc3)cc2)NC(=O)[C@H](C(C)C)NC(=O)[C@H](Cc2c[nH]c3ccccc23)NC(=O)[C@H](CC(=O)O)NC(=O)[C@H](Cc2ccc(C(=O)O)cc2)NC(=O)[C@H](Cc2ccc(OCC(=O)O)cc2)NC(=O)CSC[C@@H](C(=O)N[C@@H](C)C(N)=O)NC(=O)[C@H](CN)NC(=O)[C@H](C(C)C)NC(=O)[C@H](CC2CCCCC2)NC(=O)[C@H](CCN)NC1=O [Compound 1739] ({CH2CO}-Y(Carboxymethyl)[Phe(4-COOH)]DWV[Bip]V[Orn][dL][Dab][Cha]V[Dap]CA-NH2; thioether N-14)
15 | 6.1 | CC(C)C[C@H]1NC(=O)[C@H](CCCN)NC(=O)[C@H](C(C)C)NC(=O)[C@H](Cc2ccc(-c3ccccc3)cc2)NC(=O)[C@H](C(C)C)NC(=O)[C@H](Cc2c[nH]c3ccccc23)NC(=O)[C@H](CC(=O)O)NC(=O)[C@H](Cc2ccc(OCC(=O)O)cc2)NC(=O)[C@H](Cc2ccc(OCC(=O)O)cc2)NC(=O)CSC[C@@H](C(=O)N[C@@H](C)C(N)=O)NC(=O)[C@H](CN)NC(=O)[C@H](C(C)C)NC(=O)[C@H](CC2CCCCC2)NC(=O)[C@H](CCN)NC1=O [Compound 1740] ({CH2CO}-Y(Carboxymethyl)Y(Carboxymethyl)DWV[Bip]V[Orn][dL][Dab][Cha]V[Dap]CA-NH2; thioether N-14)
